Measured values published in ChEMBL document CHEMBL1201862, “PubChem BioAssay data set” (2004).
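Five concentrations, 48 hours, 96-well plates. Abbreviation: GI50, concentration required for 50% inhibition of growth.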 Calls of active or inactive are those of the source. Cut-off read from the data, not from the text of the source: active = GI50 up to about 1.1 µM and inactive = higher.

Tests used:
Assay in all cases: DTP human tumour cell line panel, 48 h
786-0 = test system: 786-0
ACHN = test system: ACHN
BT-549 = test system: BT-549
CAKI-1 = test system: CAKI-1
CCRF-CEM = test system: CCRF-CEM
COLO 205 = test system: COLO 205
DU-145 = test system: DU-145
HL-60 = test system: HL-60
HOP-92 = test system: HOP-92
HT-29 = test system: HT-29
KM12 = test system: KM12
MCF7 = test system: MCF7
MDA-MB-435 = test system: MDA-MB-435
MDA-N = test system: MDA-N
OVCAR-4 = test system: OVCAR-4
PC-3 = test system: PC-3
SF-268 = test system: SF-268
SK-OV-3 = test system: SK-OV-3
SN12C = test system: SN12C
UO-31 = test system: UO-31

## Nc1ccc2c(c1)NC(=O)[C@@H]1CCCN1C2=O
786-0
  GI50: > 100 µM (inactive)
ACHN
  GI50: > 100 µM (inactive)
BT-549
  GI50: > 100 µM (inactive)
CAKI-1
  GI50: > 100 µM (inactive)
CCRF-CEM
  GI50: > 100 µM (inactive)
COLO 205
  GI50: > 100 µM (inactive)
DU-145
  GI50: > 100 µM (inactive)
HL-60
  GI50: > 100 µM (inactive)
HOP-92
  GI50: > 100 µM (inactive)
HT-29
  GI50: > 100 µM (inactive)
KM12
  GI50: > 100 µM (inactive)
MCF7
  GI50: > 100 µM (inactive)
MDA-MB-435
  GI50: > 100 µM (inactive)
MDA-N
  GI50: > 100 µM (inactive)
OVCAR-4
  GI50: > 100 µM (inactive)
PC-3
  GI50: > 100 µM (inactive)
SF-268
  GI50: > 100 µM (inactive)
SK-OV-3
  GI50: > 100 µM (inactive)
SN12C
  GI50: > 100 µM (inactive)
UO-31
  GI50: > 100 µM (inactive)

## CC(C)(C)C(=O)OCOP(=O)(OCOC(=O)C(C)(C)C)OCC1OC(n2ccc(=O)[nH]c2=O)C(N=[N+]=[N-])C1O (stereo not given)
786-0
  GI50: 2.46 µM (inactive)
ACHN
  GI50: 4.2 µM (inactive)
BT-549
  GI50: 3.91 µM (inactive)
CAKI-1
  GI50: 10.4 µM (inactive)
CCRF-CEM
  GI50: 2.53 µM (inactive)
COLO 205
  GI50: 3.14 µM (inactive)
DU-145
  GI50: 4.94 µM (inactive)
HL-60
  GI50: 2.14 µM (inactive)
HOP-92
  GI50: 1.82 µM (inactive)
HT-29
  GI50: 3.44 µM (inactive)
KM12
  GI50: 3.11 µM (inactive)
MCF7
  GI50: 3.81 µM (inactive)
MDA-MB-435
  GI50: 3.71 µM (inactive)
MDA-N
  GI50: 3.11 µM (inactive)
OVCAR-4
  GI50: 3.13 µM (inactive)
PC-3
  GI50: 3.81 µM (inactive)
SF-268
  GI50: 0.757 µM (active)
SN12C
  GI50: 10.3 µM (inactive)
UO-31
  GI50: 1.62 µM (inactive)

## CO/[N+]([O-])=C\C(=O)N/C=C/C(=O)O
786-0
  GI50: > 100 µM (inactive)
ACHN
  GI50: > 100 µM (inactive)
BT-549
  GI50: > 100 µM (inactive)
CAKI-1
  GI50: > 100 µM (inactive)
CCRF-CEM
  GI50: > 100 µM (inactive)
COLO 205
  GI50: > 100 µM (inactive)
DU-145
  GI50: > 100 µM (inactive)
HL-60
  GI50: > 100 µM (inactive)
HOP-92
  GI50: > 100 µM (inactive)
HT-29
  GI50: > 10 µM (inactive)
KM12
  GI50: > 100 µM (inactive)
MCF7
  GI50: > 100 µM (inactive)
MDA-MB-435
  GI50: > 100 µM (inactive)
MDA-N
  GI50: > 100 µM (inactive)
OVCAR-4
  GI50: > 100 µM (inactive)
PC-3
  GI50: > 100 µM (inactive)
SF-268
  GI50: > 100 µM (inactive)
SK-OV-3
  GI50: > 100 µM (inactive)
SN12C
  GI50: > 100 µM (inactive)
UO-31
  GI50: > 100 µM (inactive)

## CCOC(=O)c1cc(C)n(CN(CCO)Cn2nc(C(=O)OCC)cc2C)n1
786-0
  GI50: 22 µM (inactive)
ACHN
  GI50: 22.8 µM (inactive)
BT-549
  GI50: 27.5 µM (inactive)
CAKI-1
  GI50: 36.2 µM (inactive)
CCRF-CEM
  GI50: 18.8 µM (inactive)
COLO 205
  GI50: 20.5 µM (inactive)
DU-145
  GI50: 25.5 µM (inactive)
HL-60
  GI50: 34.2 µM (inactive)
HOP-92
  GI50: 24.8 µM (inactive)
HT-29
  GI50: 23.6 µM (inactive)
KM12
  GI50: 31.6 µM (inactive)
MCF7
  GI50: 28.2 µM (inactive)
MDA-MB-435
  GI50: 39.7 µM (inactive)
MDA-N
  GI50: 29.2 µM (inactive)
OVCAR-4
  GI50: 33.4 µM (inactive)
PC-3
  GI50: 28.4 µM (inactive)
SF-268
  GI50: 34.9 µM (inactive)
SK-OV-3
  GI50: > 100 µM (inactive)
SN12C
  GI50: 27.4 µM (inactive)
UO-31
  GI50: 21.5 µM (inactive)

## CCOC(=O)NC(OC)(C(F)(F)F)C(F)(F)F
786-0
  GI50: > 100 µM (inactive)
ACHN
  GI50: > 100 µM (inactive)
BT-549
  GI50: > 100 µM (inactive)
CAKI-1
  GI50: > 100 µM (inactive)
CCRF-CEM
  GI50: > 100 µM (inactive)
COLO 205
  GI50: > 100 µM (inactive)
DU-145
  GI50: > 100 µM (inactive)
HL-60
  GI50: > 100 µM (inactive)
HOP-92
  GI50: > 100 µM (inactive)
HT-29
  GI50: > 100 µM (inactive)
MCF7
  GI50: > 100 µM (inactive)
MDA-MB-435
  GI50: > 100 µM (inactive)
MDA-N
  GI50: > 100 µM (inactive)
OVCAR-4
  GI50: > 100 µM (inactive)
PC-3
  GI50: > 100 µM (inactive)
SF-268
  GI50: > 100 µM (inactive)
SK-OV-3
  GI50: 46.9 µM (inactive)
UO-31
  GI50: > 100 µM (inactive)

## CC1(C=O)CC(CCc2ccccc2)NC1Cc1ccc(O)cc1 (stereo not given)
786-0
  GI50: 15.2 µM (inactive)
ACHN
  GI50: 15.3 µM (inactive)
BT-549
  GI50: 22.9 µM (inactive)
CAKI-1
  GI50: 14.8 µM (inactive)
CCRF-CEM
  GI50: 20.2 µM (inactive)
COLO 205
  GI50: 10.6 µM (inactive)
DU-145
  GI50: 17.5 µM (inactive)
HL-60
  GI50: 12.6 µM (inactive)
HOP-92
  GI50: 15.3 µM (inactive)
HT-29
  GI50: 14.9 µM (inactive)
KM12
  GI50: 18.2 µM (inactive)
MCF7
  GI50: 14.1 µM (inactive)
MDA-MB-435
  GI50: 17.4 µM (inactive)
MDA-N
  GI50: 17.4 µM (inactive)
OVCAR-4
  GI50: 14.2 µM (inactive)
PC-3
  GI50: 13.8 µM (inactive)
SF-268
  GI50: 16.6 µM (inactive)
SK-OV-3
  GI50: 17.4 µM (inactive)
SN12C
  GI50: 16.9 µM (inactive)
UO-31
  GI50: 14.5 µM (inactive)

## COc1cc(OC)c2nc(C)c3c(c2c1)NCC3
786-0
  GI50: 4.42 µM (inactive)
ACHN
  GI50: 4.88 µM (inactive)
BT-549
  GI50: 14.4 µM (inactive)
CCRF-CEM
  GI50: 5.26 µM (inactive)
COLO 205
  GI50: 4.68 µM (inactive)
DU-145
  GI50: 21.6 µM (inactive)
HL-60
  GI50: 15.7 µM (inactive)
HOP-92
  GI50: 13.3 µM (inactive)
HT-29
  GI50: 4.05 µM (inactive)
MCF7
  GI50: 3.94 µM (inactive)
MDA-MB-435
  GI50: 10 µM (inactive)
MDA-N
  GI50: 8.09 µM (inactive)
OVCAR-4
  GI50: 3.63 µM (inactive)
PC-3
  GI50: 6.03 µM (inactive)
SF-268
  GI50: 5.92 µM (inactive)
SK-OV-3
  GI50: 14.3 µM (inactive)
SN12C
  GI50: 4.48 µM (inactive)
UO-31
  GI50: 8.73 µM (inactive)
